Measurements reported in patent US20040013649A1, “Cancer vaccines and methods of using the same” (Inex Pharmaceuticals Corporation, priority 2002, published 2004).
Entries after “also recorded” stand apart in the source; their conditions may differ.

Legend:
[1] = test system: leukocytes bearing the activation marker CD69; test: in vitro stimulation of CD69 on leukocytes in mouse whole blood; assay type: cell-based; conditions: oligonucleotide encapsulated in POPC:CHOL:DODMA:PEGDMG 20:45:25:10
Experimental: (§1) CD69 is a cell activation marker, which quantifies the activation of NK cells, B cells and monocytes. Expression of CD69 on NK cells indicates cell activation and production of IFN-γ, which is important to inducing a Th-1 immune response. Free and encapsulated ODN1 and 2 were tested in vitro and in vivo for their ability to induce CD69 expression. A dose of 0.1 mg/ml of ODN2 and 10 mg/ml ODN1 were used in vitro and 10 mg/kg of ODN2 and 20 mg/kg of ODN1 in vivo. Each oligonucleotide was encapsulated in a lipid particle composed of POPC:CHOL:DODMA:PEGDMG in a ratio of 20:45:25:10.
FIG. 1 illustrates the in vitro stimulation of leukocytes bearing the activation marker CD69 from treating mouse whole blood with free oligonucleotides and encapsulated oligonucleoties, specifically ODN1 and 2. When mouse whole blood was treated in vitro with free oligonucleotides there was a dose responsive increase in the amount of CD69 positive B-cells, monocytes and to some extent, NK cells, according to the amount of free oligonucleotide used 15 hours after treatment. […] However, when these same oligonucleotides were encapsulated in a lipid vesicle, the in vitro stimulation of CD69 production on these same cell types was reduced or abolished altogether.

E.G7-OVA [2] = test: prophylactic efficacy of OVA / OVA257-264 vaccination, E.G7-OVA model; assay type: in vivo, C57/BL6 mice; design: anti-tumor activity / antigen specific efficacy / adjuvant activity following prophylactic vaccination: dose or concentration left out as unconfirmed; conditions: for efficacy of ODN sequences: LNA (encapsulated) forms, FIG. 35; for antigen specific efficacy / adjuvant activity following prophylactic vaccination: free or encapsulated ODN 1 mixed with OVA or OVA257-264, SC; for prophylactic effect on tumor growth: OVA257-264 peptide, LNA containing ODN 30 (PO), SC for 2 weeks, FIG. 31; for anti-tumor activity: antigen alone, once weekly vaccination, 2 injections
Experimental: Vaccinations. B6 mice were vaccinated subcutaneously (SC) with […] per injection. Dosing schedules were either q7dx2 or q4dx4 and are indicated in the individual figure legends. CFA mixtures were very viscous and had to be given with a larger gauge syringe. For humoral studies, a prime (day 0) and boost (day 14) strategy was used and blood samples were collected at various times by tail nicking.
Efficacy studies. E.G7-OVA or EL-4 thymoma cell lines were used throughout the study. These cells were cultured in vitro according to established methods. For tumor studies, 2.5×106 E.G7-OVA cells were injected subcutaneously in […] of PBS containing 1% FCS. Tumor measurements were made by repeated perpendicular measurements of tumor dimensions and using the formula: […]
Full-length OVA and the immunodominant cytotoxic T lymphocyte (CTL) peptide epitope (OVA257-264) were used to evaluate cell mediated immune responses and the prophylactic and therapeutic efficacy of OVA vaccination against the E.G7-OVA transfected cell line, using LNA both as an adjuvant and as the basis for a cancer vaccine formulation. LNA formulations for this experiment were prepared using DSPC:Chol:DODAP:PEGCer14 at a ration of 25:45:20:10
The anti-tumor activity of OVA and OVA257-264 were examined against the murine thymoma cell line, E.G7-OVA, implanted subcutaneously (SC) in C57/BL6 mice. […] Given the activity observed with the protein or peptide alone, this dose and schedule represents a useful model to evaluate adjuvants designed to boost the immune response against OVA and/or OVA257-264.
To examine LNA formulations as adjuvants, the impact of three variables were evaluated on vaccination and efficacy in the prophylactic E.G7-OVA model: (1) the activity of free vs. encapsulated ODN 1, (2) phosphodiester (PO) vs phosphorothioate (PS) ODN, and (3) full-length OVA protein vs single-epitope peptide OVA257-264 (FIGS. 30A and B). In this set of studies, free and encapsulated ODN 1 was simply mixed with antigen and administered SC near the nape of the neck. ODN and antigen doses in these studies were […], respectively.

B16 cells = test: TRP-2 peptide vaccination, B16 pulmonary metastases; assay type: in vivo, mice; conditions: SC weekly ×3, then B16 cells IV
Experimental: TRP-2 and gp100 studies were conducted using the B16/BL6 murine melanoma model. B16 cells (1.0×105) were injected IV in a volume of […]. Typically, animals were vaccinated weekly for 2-3 injections and B16 cells were then administered 1-2 days after the final vaccination. Animals were terminated between days 14-18 post-B16 injection, lungs were removed, and metastases were counted using a stereomicroscope.
TRP-2 peptide was mixed with various adjuvant formulations and was administered SC weekly (×3), followed by an IV administration of B16 cells, which aggressively seed to the lung to form numerous micro metastases. […] CFA is a balanced Th1/Th2 and gave a modest response (mean=46), consistent with the E.G7-OVA studies.

dendritic cells = test: expansion of dendritic cells (CD11c, DEC205) in spleen, blood and lymph nodes; assay type: in vivo, ICR mice; conditions: lipid encapsulated; single i.v. injection 20 mg/kg; versus PBS control = 100%
Experimental: ICR mice were immunized with a single intravenous injection of encapsulated oligonucleotides at a dose of 20 mg/kg and the control ICR mouse was injected with PBS. […] Each of these markers are specific to dendritic cells though they may represent different cell sub-populations. In each of FIGS. 4 and 5 the control was plotted as equivalent to 100% and the effect of ODN1m for each backbone configuration was plotted as a percentage of that control.

[3] = test system: EG.7 Ova expressing tumor cells; test: prophylactic anti-tumor efficacy, EG7-OVA tumor model, q7d×3; assay type: in vivo, C57BI/6 mice
Experimental: Efficacy studies. E.G7-OVA or EL-4 thymoma cell lines were used throughout the study. These cells were cultured in vitro according to established methods. […] Tumor measurements were made by repeated perpendicular measurements of tumor dimensions and using the formula: […]
Anti-tumor efficacy induced by subcutaneous immunization was assessed in C57BI/6 (5 animals per group) in a prophylactic immunization model. Mice were immunized subcutaneously with 3 injections on a q7d×3 dosing regimen on Days 0, 7 and 14 at a dose of 100 μg oligonucleotide and 20 μg of OVA antigen dose. […] Mice were monitored 3 times weekly to assess tumor growth and weight gain. Control mice were injected with one of PBS or HBS and […] of OVA antigen on the same schedule described above. Oligonucleotides were encapsulated in a lipid particle having a lipid composition of one of POPC: CHOL: DODAP:PEGCer14 or DSPC: CHOL: DODAP:PEGCer14 each in a ratio of 25:45:20:10. All comparisons of methylated and unmethylated oligonucleotides were done using like lipid particles. Results from these efficacy experiments are detailed in FIGS. 12-15, 18-21, and 25-28. Day 0 on each of the Figures is the day each animal was challenged with the tumor.

[4] = test system: leukocytes bearing the activation marker CD69; test: in vivo stimulation of the CD69 marker after injection; design: species or system ICR mice; conditions: lipid encapsulated oligonucleotide; 10 mg/kg ODN2, 20 mg/kg ODN1; 16 and 24 hours after injection
Experimental: as §1
When the same oligonucleotides were tested in vivo, however, surprising results were obtained. FIG. 2 illustrates that in vivo treatment of ICR mice by injection with encapsulated or free oligonucleotides produces results that are contrary to those obtained in vitro.

[5] = test system: IL-12, IL-6, IFN-γ and MCP-1; test: plasma cytokine levels after i.v. injection; assay type: in vivo, ICR mice; conditions: for stimulation of plasma IL-6, IL-12, IFN-γ and MCP-1: encapsulated in DSPC:Chol:DODAP:PEG-CER14 20:45:25:10, i.v.
Experimental: As noted above, with non-lipid encapsulated oligonucleotides the backbone is traditionally modified so as to reduce molecular degradation by nucleases. However, on encapsulation, such a modification is no longer required to prevent degradation. To establish the effect of a different phosphate backbone on cytokine stimulation induced by lipid encapsulation, mice were injected with oligonucleotides having both PO and PS backbones, and cytokine stimulation was measured over a series of points in time (as shown in FIG. 6 and 7B) and over a sliding dosage scale as shown in FIG. 7A. In this experiment ICR mice were injected i.v. with a 20 mg ODN/kg dose of free PO ODN1, encapsulated PO-ODN1 and encapsulated PS-ODN1. […] Cytokine stimulation is generally indicative of a cellular immune response as is a chemokine response in MCP-1. Oligonucleotides were encapsulated in a lipid particle composed of DSPC:Chol:DODAP:PEG-CER14 in a ratio of 20:45:25:10.

E.G7-OVA [6] = test: therapeutic efficacy of OVA vaccination, established E.G7-OVA tumors; assay type: in vivo, B6 mice; conditions: treatment q4d×4 once tumors had reached ~250 mm3
Excerpt: Currently, the clinical objective is to generate a therapeutic host immune responses that can reduce the progression of established cancers. To evaluate the effect of vaccination on therapeutic efficacy in the E.G7-OVA model, B6 mice were implanted with E.G7-OVA cells and were subsequently treated with OVA, OVA +ODN 1 or OVA +LNA/ODN 1 on a q4d×4 schedule once the tumors had reached ˜250 mm3.

[7] = TRP-2 peptide alone or mixed with free ODN or other adjuvant
[8] = encapsulated ODN (LNA) mixed with TRP-2 peptide
[9] = encapsulated form versus free at the same dose

ODN1: 5′-TAACGTTGAGGGGCAT-3, SEQ ID NO: 2, human c-myc (tested as both phosphodiester and phosphorothioate backbone forms, lipid-encapsulated, further chemistry not given here)
stimulation of CD69 positive B-cells, monocytes and NK cells [1]: reduced the stimulation of CD69 on NK cells below the control level | efficacy of ODN sequences (E.G7-OVA [2]): strongest responses | antigen specific efficacy / adjuvant activity following prophylactic vaccination (E.G7-OVA [2]): encapsulation of ODN 1 resulted in increased antigen specific efficacy | mean number of metastases (B16 cells; [7]): 37 | mean number of metastases (B16 cells; [8]): 6 | expansion of CD11c positive dendritic cells (dendritic cells): stimulated the expansion of CD11c positive cells in spleen and whole blood | expansion of DEC205 positive dendritic cells (dendritic cells): stimulate the expansion of DEC205 positive cells in spleen, whole blood and lymph node | reduction in tumor growth ([3]; free ODN, 100 μg ODN + 20 μg OVA s.c. q7d×3, tumor challenge Day 21): showed a greater reduction in tumor growth than their methylated counterparts | reduction in tumor growth ([3]; lipid encapsulated ODN, PO backbone, 100 μg ODN + 20 μg OVA s.c. q7d×3): lost its efficacy | number of animals remaining in the study ([3]; lipid encapsulated ODN, FIG. 19B): essentially identical throughout the study | stimulation of the CD69 marker in vivo [4]: able to stimulate production of CD69 on NK cells | late IFN-γ peak ([5]; encapsulated PS oligonucleotides, 6 days after treatment): produced a strong IFN-γ peak; also recorded: produced an IFN-gamma peak | stimulation of plasma IL-6, IL-12, IFN-γ and MCP-1 [5]: increased IL-12 induction

ODN 29: 5′-CAACGTTATGGGGAGA-3′, SEQ ID NO: 29; non-antisense version of ODN 1 (chemistry not given here)
efficacy of ODN sequences (E.G7-OVA [2]): strongest responses

ODN 3: 5′-TAAGCATACGGGGTGT-3, SEQ ID NO: 3; non-CpG ODN control sequence for ODN 1 (chemistry not given here)
mean number of metastases (B16 cells; [7]): 83 | mean number of metastases (B16 cells; [8]): 23

mOVA: acylated OVA257-264 peptide; modified peptide with stearoyl group at the N-terminus [reference compound]
prophylactic effect on tumor growth (E.G7-OVA [2]): no prophylactic effect | anti-tumor activity (E.G7-OVA [2]): no anti-tumor activity was observed

pOVA: immunodominant CTL peptide epitope OVA257-264 (ESIINFEK; UniProt P01012 257-264, looked up, fragment) [reference compound]
prophylactic effect on tumor growth (E.G7-OVA [2]): no prophylactic effect | anti-tumor activity (E.G7-OVA [2]): no anti-tumor activity was observed

ODN14: 5′-AACC GTT GAG GGG CAT-3′, SEQ ID NO: 14, human c-myc (AACCGTTGAGGGGCAT; tested as both phosphodiester and phosphorothioate backbone forms, lipid-encapsulated, further chemistry not given here)
increase in IFN-γ [5, 9]: 20 fold | increase in IL-6 [5, 9]: 1000 fold | increase in peak plasma IL-12 [5, 9]: 2.5 fold | stimulation of plasma IL-6, IL-12, IFN-γ and MCP-1 [5]: increased IL-12 induction

TRP-2 peptide: immunodominant MHC class I peptide epitope of TRP-2, VYDFFVWL [reference compound]
mean number of metastases (B16 cells; [7]): 82

B1: OVA: Hen egg albumin (ovalbumin), full-length protein, model tumor-associated antigen (protein, UniProt P01012 1-386, looked up)
chain: MGSIGAASMEFCFDVFKELKVHHANENIFYCPIAIMSALAMVYLGAKDSTRTQINKVVRFDKLPGFGDSIEAQCGTSVNVHSSLRDILNQITKPNDVYSFSLASRLYAEERYPILPEYLQCVKELYRGGLEPINFQTAADQARELINSWVESQTNGIIRNVLQPSSVDSQTAMVLVNAIVFKGLWEKAFKDEDTQAMPFRVTEQESKPVQMMYQIGLFRVASMASEKMKILELPFASGTMSMLVLLPDEVSGLEQLESIINFEKLTEWTSSNVMEERKIKVYLPRMKMEEKYNLTSVLMAMGITDVFSSSANLSGISSAESLKISQAVHAAHAEINEAGREVVGSAEAGVDAASVSEEFRADHPFLFCIKHIATNAVLFFGRCVSP
modifications: full-length
notes: Hen egg albumin (ovalbumin), full-length protein, model tumor-associated antigen
anti-tumor activity (E.G7-OVA [2]): Anti-tumor activity was observed | antigen specific efficacy / adjuvant activity following prophylactic vaccination (E.G7-OVA [2]): dramatically improved immune responses and efficacy | tumor growth of established tumors (E.G7-OVA [6]): no delay in tumor growth
